Source: patent US7115636B2, “Hetrocyclic aryl sulphonamides” (Bayer Healthcare AG, priority 2001, dated 2006)

Legend:
Type in all cases: cell-based
[1] = Cytotoxicity on HELF cells (anti-HCMV cytopathogenicity test plates); settings: human, human lung fibroblasts (HELF), 6 days incubation
Protocol: (§1) The test compounds were employed as 50 millimolar (mM) solutions in dimethyl sulfoxide (DMSO). Ganciclovir, foscarnet and cidofovir served as reference compounds. After the addition of 2 μl in each case of the 50, 5, 0.5 and 0.05 mM DMSO stock solutions to 98 μl each of cell culture medium in row […] in duplicate, 1:2 dilutions using 50 μl each of medium up to row 11 of the 96-well plate were carried out. The wells in rows 1 and 12 each contained 50 μl of medium. 150 μl each of a suspension of 1×10^4 cells (human lung fibroblasts [HELF]) were then pipetted into the wells (row 1=cell control) or a mixture of HCMV-infected and non-infected HELF cells (M.O.I.=0.001-0.002), i.e. 1-2 infected cells to 1000 non-infected cells, was pipetted into rows 2-12. Row 12 (without substance) served as a virus control. The final test concentrations were 250-0.0005 μM. The plates were incubated at 37° C./5% CO2 for 6 days, i.e. until all cells were infected in the virus controls (100% cytopathogenic effect [CPE]). The wells were then fixed by addition of a mixture of formalin and Giemsa's stain and stained (30 minutes), washed with double-distilled water and dried at 50° C. in a drying oven. The plates were then evaluated visually using an overhead microscope (Plaque multiplier from Technomara). […]

[2] = test system: HCMV (human cytomegalovirus); assay: Anti-HCMV cytopathogenicity test; settings: Human betaherpesvirus 5, 144 h; inhibition of CPE by 50%, HCMV-infected HELF cells, M.O.I. 0.001–0.002, 6 days
Protocol: as §1, with “Anti-HCMV (anti-human cytomegalovirus) and anti-MCMV (anti-murine cytomegalovirus) cytopathogenicity tests: The test” for “The test”

[3] = test system: MCMV (murine cytomegalovirus); assay: Anti-MCMV cytopathogenicity test; settings: Murid betaherpesvirus 1, 120 h; MCMV on 3T3 mouse cells, M.O.I. 0.05–0.1, 5 days
Protocol: Anti-HCMV (anti-human cytomegalovirus) and anti-MCMV (anti-murine cytomegalovirus) cytopathogenicity tests:
The test compounds were employed as 50 millimolar (mM) solutions in dimethyl sulfoxide (DMSO). Ganciclovir, foscarnet and cidofovir served as reference compounds. After the addition of 2 μl in each case of the 50, 5, 0.5 and 0.05 mM DMSO stock solutions to 98 μl each of cell culture medium in row 2 A-H in duplicate, 1:2 dilutions using 50 μl each of medium up to row 11 of the 96-well plate were carried out. The wells in rows 1 and 12 each contained 50 μl of medium. 150 μl each of a suspension of 1×10^4 cells (human lung fibroblasts [HELF]) were then pipetted into the wells (row 1=cell control) or a mixture of HCMV-infected and non-infected HELF cells (M.O.I.=0.001–0.002), i.e. 1–2 infected cells to 1000 non-infected cells, was pipetted into rows 2–12. Row 12 (without substance) served as a virus control. The final test concentrations were 250–0.0005 μM. The plates were incubated at 37° C./5% CO2 for 6 days, i.e. until all cells were infected in the virus controls (100% cytopathogenic effect [CPE]). The wells were then fixed by addition of a mixture of formalin and Giemsa's stain and stained (30 minutes), washed with double-distilled water and dried at 50° C. in a drying oven. The plates were then evaluated visually using an overhead microscope (Plaque multiplier from Technomara). […]

[4] = Cytotoxicity on 3T3 cells (anti-MCMV test); settings: 3T3 mouse cells, 5 days incubation

| EC50 [2] [nM] | EC50 [3] [nM] | SMILES | CC50 at 6 days [1] [nM] | CC50 at 5 days [4] [nM] |
| --- | --- | --- | --- | --- |
| 28 | 35 | CC1(C(=O)Nc2ccc(NS(=O)(=O)c3cccc(-c4noc([C@@H](N)CCCCN)n4)c3)cc2)CC1 [Example 1] | > 250000 | 18000 |
| 74 | 74 | CC(C)[C@H](N)c1nc(-c2ccc(S(=O)(=O)Nc3cccc(NC(=O)C(C)(C)CF)c3)cc2)no1 [Example 3, N-(3-{[(4-{5-[(1S)-1-Amino-2-methylpropyl]-1,2,4-oxadiazol-3-yl}phenyl)sulphonyl]amino}phenyl)-3-fluoro-2,2-dimethylpropanamide] | > 250000 | 63000 |
